One series concerns MRSA-1. Briefly: MIC, clinical isolate of S. aureus. It is filed as cell-based. To be noted: Staphylococcus aureus; clinical isolate MRSA-1; read-out: MIC. In outline: (§1)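 Panel: Gram-pos. ATCC strains plus clinical S. aureus isolates (MSSA, MRSA). Test cpds: thiosemicarbazides. Ref. antibiotics: amoxicillin, gentamicin, levofloxacin, linezolid, vancomycin.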
A further series concerns MSSA-1. Briefly: MIC, clinical isolate of S. aureus. It is filed as cell-based. As to conditions: Staphylococcus aureus; clinical isolate MSSA-1; read-out: MIC. In outline: as §1
The next series relates to MSSA-2. The experiment in a line: MIC, clinical isolate of S. aureus. It is filed as cell-based. To be noted: Staphylococcus aureus; clinical isolate MSSA-2; read-out: MIC. In outline: as §1
For a further series, the system named is MSSA-3. The experiment in a line: MIC, clinical isolate of S. aureus. It counts as cell-based. As to conditions: Staphylococcus aureus; clinical isolate MSSA-3; read-out: MIC. In outline:
as §1

In a further series the test system is MSSA-4. Briefly: MIC, clinical isolate of S. aureus. To be noted: Staphylococcus aureus; clinical isolate MSSA-4; read-out: MIC. It counts as cell-based. The method in brief:
as §1

Another series is described as follows: MTT cytotoxicity assay. It is filed as cell-based, human. As to conditions: human, Hs27 foreskin fibroblast cells (ATCC CRL-1634), 25 µg/mL, 24 h, vehicle control = 100%. For orientation: Formazan colour is commonly taken as a measure of viable cells.
Series [1] deals with human foreskin fibroblast Hs27 cells (CRL-1634). Briefly: MTT cytotoxicity assay. It is filed as cell-based. To be noted: Homo sapiens, 24 h of treatment.
Series [2] concerns HeLa cell line. Briefly: Cytotoxicity (earlier study). It counts as cell-based. As to conditions: HeLa IC30 / MIC S. aureus ATCC 25923. From the text:
(§2) For the compound with the best solubility (2), its cytotoxicity against L929 and HeLa cells was presented previously. The cytotoxicity was expressed as rigorous IC30 values, defined as the highest dilutions of test samples that cause 30% or greater destruction of cells.

Series [3] deals with L929 cell line. The experiment in a line: Cytotoxicity (earlier study). It is filed as cell-based. To be noted: L929 IC30 / MIC S. aureus ATCC 25923.
Description: as §2

Series [4] has as its system S. aureus ATCC 25923. The experiment in a line: Checkerboard broth dilution synergy assay. It is filed as cell-based. In outline:
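Checkerboard broth microdilution against S. aureus ATCC 25923 paired each thiosemicarbazide with amoxicillin, gentamicin, levofloxacin, linezolid or vancomycin. FICI is the sum of each drug's MIC in combination divided by its MIC alone: ≤0.5 synergy, 0.5–1 additive, 1–4 indifferent, ≥4 antagonism.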
A general note: In broth dilution the organism is exposed to a series of concentrations in liquid medium.

A further series deals with S. aureus ATCC 6538. Details: method as in PMID 25897586. To be noted: S. a. ATCC 6538; compounds 1–5; cited from earlier work.
The test system of series [5] is S. aureus ATCC 25923. Details: method as in PMID 25897586. As to conditions: S. a. ATCC 25923; compounds 1–5; cited from earlier work.
Series [6] concerns S. epidermidis ATCC 12228. Details: method as in PMID 25897586. As to conditions: S. e. ATCC 12228; compounds 1–5; cited from earlier work.
Another series concerns B. subtilis ATCC 6633. Details: method as in PMID 25897586. To be noted: B. s. ATCC 6633; compounds 1–5; cited from earlier work.
The next series has as its system B. cereus ATCC 10876. On the set-up: method as in PMID 25897586. As to conditions: B. c. ATCC 10876; compounds 1–5; cited from earlier work.
In a further series the test system is M. luteus ATCC 10240. Details: method as in PMID 25897586. To be noted: M. l. ATCC 10240; compounds 1–5; cited from earlier work.
Series [7] has as its system L929 cell line. On the set-up: method as in PMID 25897586. As to conditions: IC30 = 30% or greater destruction of cells; cited from earlier work.
In series [8] the test system is HeLa cell line. Details: method as in PMID 25897586. To be noted: IC30 = 30% or greater destruction of cells; cited from earlier work.

Structures are written as SMILES. Values after ≈ are worked out from the molar mass of the structure shown.

We go through 1 molecule from publication PMC7288171, “Synergistic Effects of Thiosemicarbazides with Clinical Drugs against S. aureus” (Molecules, 2020).

Consider `Cc1cccc(C(=O)NC(=S)NNC(=O)c2cccc(Cl)c2Cl)c1` [compound 2], for which the MIC in the series on MRSA-1 is 500 µg/mL (≈ 1310 µM); in the series with MSSA-1, above 500 µg/mL; with MSSA-2, above 500 µg/mL; with MSSA-3 it was above 500 µg/mL; in the series with MSSA-4, 500 µg/mL (≈ 1310 µM); with S. aureus ATCC 6538, 7.81 µg/mL (≈ 20.4 µM). The MIC with S. aureus ATCC 25923 [5] is reported as 7.81 µg/mL (≈ 20.4 µM); in series [6] it was 3.91 µg/mL (≈ 10.2 µM); in the series with B. subtilis ATCC 6633, 0.49 µg/mL (≈ 1.28 µM); in the series with B. cereus ATCC 10876, 1.95 µg/mL (≈ 5.1 µM); in the series on M. luteus ATCC 10240, 0.98 µg/mL (≈ 2.56 µM). The viability at 24 h, 25 µg/mL in “MTT cytotoxicity assay” turned out to be 76.7%. Moreover, the 50% inhibitory concentration (IC50) in [1] is above 25 µg/mL. For the same molecule, the “selectivity index SI (SI = IC30/MIC)” value with HeLa cell line [2] is given as 3.97; with L929 cell line [3], 3.94. For the same molecule, the “interaction in combination” value is “additive” in the series on S. aureus ATCC 25923 [4] (combination with amoxicillin); “no interactions” with S. aureus ATCC 25923 [4] (combination with gentamicin); “no interactions” in the series on S. aureus ATCC 25923 [4] (combination with levofloxacin); “synergistic” in the series on S. aureus ATCC 25923 [4] (combination with linezolid); “no interactions” with S. aureus ATCC 25923 [4] (combination with vancomycin). Further, the results for the IC30 with L929 cell line [7] and with HeLa cell line [8] were 30.78 µg/mL (≈ 80.5 µM) and 30.97 µg/mL (≈ 81 µM), respectively.

Usually MIC stands for the smallest concentration in the dilution series that meets the test's criterion for growth inhibition. In general, viability refers to a read-out of living cells in per cent, often relative to untreated cells. Read a low viability as a greater loss of cells. Broadly, the IC50 is the concentration that gives 50% inhibition. A high value points to lower potency. Usually IC30 stands for the concentration at which the effect reaches the 30% level.
